According to BigSolDB 2.1:

COc1cccc(C(=O)O)c1OC
solubility (mole fraction)
Details | 278.15 K | 283.15 K | 288.15 K | 293.15 K | 298.15 K | 303.15 K | 308.15 K | 313.15 K | 318.15 K | 323.15 K
in 1,4-dioxane | – | – | 0.0585 | 0.069 | 0.0805 | 0.0934 | 0.11 | 0.127 | 0.148 | –
in 2-ethoxyethanol | 0.0418 | 0.0485 | 0.0552 | 0.0644 | 0.0733 | 0.084 | 0.0974 | 0.109 | 0.128 | 0.146
in acetonitrile | 0.0108 | 0.0133 | 0.0167 | 0.0204 | 0.0254 | 0.0309 | 0.0385 | 0.0474 | 0.059 | 0.0734
in ethanol | 0.0131 | 0.0165 | 0.0202 | 0.0252 | 0.0304 | 0.0384 | 0.0466 | 0.0592 | 0.0714 | 0.0884
in ethyl acetate | 0.0133 | 0.0159 | 0.0189 | 0.023 | 0.0271 | 0.0332 | 0.0391 | 0.0464 | 0.057 | 0.0685
in ethylene glycol | 0.0468 | 0.0529 | 0.0616 | 0.0708 | 0.0801 | 0.092 | 0.104 | 0.12 | 0.137 | 0.154
in isopropanol | 0.00832 | 0.0106 | 0.0138 | 0.0175 | 0.0233 | 0.0291 | 0.0384 | 0.0482 | 0.0632 | 0.0791
in isopropyl acetate | 0.00953 | 0.0111 | 0.0137 | 0.0162 | 0.0198 | 0.0237 | 0.029 | 0.0339 | 0.0425 | 0.0499
in methanol | 0.0151 | 0.0192 | 0.0229 | 0.0288 | 0.0348 | 0.0446 | 0.0535 | 0.0682 | 0.0838 | 0.101
in methyl acetate | 0.0166 | 0.0197 | 0.0236 | 0.0282 | 0.034 | 0.041 | 0.0494 | 0.0589 | 0.0719 | 0.0862
in n-butanol | 0.00922 | 0.0116 | 0.0144 | 0.0183 | 0.0219 | 0.0284 | 0.0362 | 0.0449 | 0.0562 | 0.0716
in n-butyl acetate | 0.00923 | 0.0111 | 0.0134 | 0.016 | 0.0195 | 0.0234 | 0.0286 | 0.0342 | 0.0428 | 0.0506
in n-propanol | 0.00925 | 0.0122 | 0.0151 | 0.0197 | 0.0243 | 0.0316 | 0.0386 | 0.05 | 0.0618 | 0.0793
in n-propyl acetate | 0.0106 | 0.0133 | 0.0154 | 0.0193 | 0.0224 | 0.0279 | 0.0326 | 0.0403 | 0.0468 | 0.0583
in water | 4.79e-05 | 6.1e-05 | 7.77e-05 | 0.0001 | 0.000125 | 0.000162 | 0.000202 | 0.00026 | 0.000323 | 0.000399
